Data from patent US20120276098A1, “DRUG FUSIONS AND CONJUGATES WITH EXTENDED HALF LIFE” (priority 2009, published 2012).
Read-outs that look alike come from different tables or passages of the source. Marks after values point to notes of the source that are not given here.

Experiments:
[1] = target: Mouse serum albumin (MSA) (Mus musculus, UniProt P07724); format: binding
Description: (§1) The analysis was performed using a CM5 Biacore chip (carboxymethylated dextran matrix) that was coated with serum albumin. About 1000 resonance units (RUs) of each serum albumin to be tested (human, rat and mouse serum albumin) was immobilised in acetate buffer pH 5.5. Flow cell 1 of the Biocore AB was an uncoated, blocked negative control, flow cell 2 was coated with Human serum albumin (HSA) (815 RUs) flow cell 3 was coated with Rat serum albumin (RSA)(826RUs) and flow cell 4 was coated with Mouse serum albumin (MSA) (938 RUs). Each fusion molecule tested was expressed in mammalian tissue culture as described in the example above.
(§2) A range of concentrations of the fusion molecule were prepared (in the range 16 nM to 2 μM) by dilution into BIACORE HBS-EP buffer (0.01 M HEPES, pH7.4, 0.15 M NaCl, 3 mM EDTA, 0.005% surfactant P20) and flowed across the BIACORE chip.
(§3) Affinity (KD) was calculated from the BIACORE traces by fitting on-rate and off-rate curves to traces generated by concentrations of dAb in the region of the KD.

Rat serum albumin (RSA) = Rat serum albumin (RSA) (Rattus norvegicus, UniProt P02770); format: binding
Description: as §1, §2, §3

[2] = target: Human serum albumin (HSA) (Homo sapiens, UniProt P02768); format: binding
Description: as §1, §2, §3

GLP1R [3] = target: T1, GLP1R (Homo sapiens, UniProt P43220); assay: GLP-1 receptor binding assay (GLP-1R BA), CHO 6CRE GLP1R luciferase reporter cells; format: cell-based; parameters: expressed in transfected cells; host or cells: CHO K1 (CHO 6CRE GLP1R cells)
Description: Fusions were buffer exchanged into 100 mM […], 20 mM citrate pH 6.2. Meanwhile,CHO 6CRE GLP1R cells (CHO K1 cells (obtainable from the American Type Tissue Collection, ATCC) stably transfected with 6 cAMP response element driving a luciferase reporter gene and also with the human GLP-1 receptor) were seeded at 2×10^5cells/mL in suspension media. Suspension culture was maintained for 24 hours. Cells were then diluted into 15 mM HEPES buffer (obtainable from Sigma), containing 2 mM L glutamine (2.5×10^5 cells/ml) and dispensed into 384-well plates containing 10 ul/well of the compound to be assayed. After the addition of assay control, plates were returned to the incubator for 3 h at 37° C. and 5% CO2. […] Plates were placed in the reader (Viewlux, Perkin Elmer) and pre-incubated for 5 minutes prior to reading the […] and plotting of results. Compound was assayed at a range of concentrations in the presence and absence of 10 uM albumin, allowing a dose response curve to be fitted with and without the albumin.

[4] = tested on: diet induced obese (DIO) C57BL/6 mice; assay: Chronic obesity efficacy study in diet induced obese (DIO) mice, peptide-AlbudAbs alone and combined; format: in vivo, mouse
Description: Male diet induced obese (DIO) C57BL/6 mice (Taconic, Hudson, N.Y.) and lean C57BL/6 mice (Taconic, Hudson, N.Y.) were used for all experiments. DIO C57BL/6 mice were group housed and fed a high fat diet (45% fat by kcal) by the vendor from the time of weaning. DIO mice (40-50 g body weight) and age-matched controls were single-housed and maintained at constant temperature (approximately 22° C.) with 12 hr light/dark cycle (lights on from 5:00 AM to 5:00 PM). Mice were given ad libitum access to food (Research Diets D12451, 45% fat for DIO; Lab Diet 5001, 13.5% fat for lean) and water. All animal protocols were approved by the institutional animal care and use committee at GlaxoSmithKline in Research Triangle Park, N.C. The peptide-AlbudAbs were either prepared fresh daily or were prepared once and frozen at −70 deg C. in aliquots. For combination dosing, the drugs were mixed together so that only one injection would be required.
Chronic Obesity Efficacy Studies: DIO C56BL/6 mice and age-matched lean controls were habituated in house for 6 weeks before the start of the study. Animals were dosed every two days between 2-4 pm subcutaneously with a dose volume of 5 ml/kg over a period of 15 days.
A three day vehicle lead in period was used before the start of drug with the first day being vehicle and the second two days being mock injections. Baseline fat mass and lean mass measurements were taken 3-4 days before the start of drug and on day 15 using a QMR instrument (Echo Medical Systems, Houston, Tex.) Body weight measurements were taken every Monday, Wednesday, and Friday starting four days before the first drug dose, with the first measurement being used to randomize the animals. Food hopper weights were measured every weekday starting 4-6 days before the first drug dose, allowing for the calculation of food intake. Animals that created excessive food spillage were removed prior to the beginning of the study. During the study, excess food was removed from the cage and added to the food hopper weights for increased accuracy. Eight to ten animals (n=8-10) were used for the lean control group and eight animals (n=8) were used for all other treatment groups. Sixteen days after the start of drug treatment, animals were fasted for at least 4 hours before collection of whole blood, plasma, and serum samples via terminal cardiac exsanguinations. The whole blood was used to determine the % HbAlc, the plasma was used for a gastrointestinal hormone panel, and the serum was used to access multiple clinical chemistry parameters. Finally, major organs and tissues were collected (heart, kidney, liver, lung, stomach, duodenum, colon, pancreas, brown adipose, white adipose, carcass) on day 16 and fixed in 10% neutral buffered formalin for macroscopic and microscopic histological examination.

GLP1R [5] = target: T2, GLP1R (Mus musculus, UniProt O35659); assay: melanophore functional bioassay, mouse GLP1R; format: cell-based; conditions: melanophores transfected with receptor
T2 construct: expressed in transfected cells; host or cells: melanophores
T2 sequence (O35659 22-463): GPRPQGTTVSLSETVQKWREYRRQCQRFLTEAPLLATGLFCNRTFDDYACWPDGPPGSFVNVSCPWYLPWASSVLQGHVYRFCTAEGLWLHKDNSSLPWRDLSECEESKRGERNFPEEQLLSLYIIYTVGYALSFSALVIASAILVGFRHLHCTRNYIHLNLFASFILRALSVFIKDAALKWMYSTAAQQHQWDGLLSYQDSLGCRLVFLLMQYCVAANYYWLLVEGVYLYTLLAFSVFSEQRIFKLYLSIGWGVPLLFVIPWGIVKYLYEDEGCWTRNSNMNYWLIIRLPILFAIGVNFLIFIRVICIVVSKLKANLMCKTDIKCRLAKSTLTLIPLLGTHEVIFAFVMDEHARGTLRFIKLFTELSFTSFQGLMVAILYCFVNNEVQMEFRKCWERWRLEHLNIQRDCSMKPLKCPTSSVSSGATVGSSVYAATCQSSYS
Description: (§4) The bioassay was performed essentially as described in Jayawickreme et al. (2005) Current Protocols in Pharmacology 12.9.1-12.9.16.

db/db C57BL/6J mice = assay: Chronic diabetes efficacy study in db/db mice, peptide-AlbudAbs alone and combined; format: in vivo, mouse; conditions: for decrease in glycosylated HbAlc: baseline vs day 16; for plasma insulin levels: day 16
Description: Male db/db C57BL/6J mice (Jackson Labs, Bar Harbor, Me.) were used for all experiments. The db/db mice (B6.Cg-m +/+ Leprdb/J) and controls were group-housed by the vendor. The db/db mice (10-12 weeks of age), and age-matched controls were shipped to GSK where they were single-housed and maintained at constant temperature (approximately 22° C.) with 12 hr light/dark cycle (lights on from 5:00 AM to 5:00 PM). Mice were given ad libitum access to food (LabDiet 5K67, 16% fat for db/db and their controls) and water. All animal protocols were approved by the institutional animal care and use committee at GlaxoSmithKline in Research Triangle Park, N.C. The peptide-AlbudAbs were prepared fresh daily. The correct dosing concentration of the drug was obtained by diluting the master stock using a citrate vehicle buffer comprised of 100 mM NaCl, 20 mM citric acid, pH 6.2 (filter sterilized). For combination dosing, the drugs were mixed together so that only one injection would be required.
Chronic Diabetes Efficacy Studies: The db/db mice and age-matched lean controls were habituated in house 2 weeks before the start of the study. Animals were dosed every two days between 2-4 pm subcutaneously with a dose volume of 5 ml/kg over a period of 15 days. A three day vehicle lead in period was used before the start of drug with the first day being vehicle and the second two days being mock injections. Baseline fat mass and lean mass measurements were taken 3 days before the start of drug and on day 15 using a QMR instrument (Echo Medical Systems, Houston, Tex.) Body weight measurements were taken every Monday, Wednesday, and Friday starting four days before the first drug dose. […] Food hopper weights were measured every weekday starting 4-6 days before the first drug dose, allowing for the calculation of food intake. Animals that created excessive food spillage were removed prior to the beginning of the study. During the study, excess food was removed from the cage and added to the food hopper weights for increased accuracy. Eight animals (n=8) were used for the lean control group and eight animals (n=8) were used for all other treatment groups. A pair-fed control was included in which the daily food intake for the combination ED80 group was calculated and that amount of food was given to the pair-fed group to eat the next day. Sixteen days after the start of drug treatment, animals were fasted for at least 4 hours before collection of whole blood, plasma, and serum samples via terminal cardiac exsanguinations. The whole blood was used to determine the % HbAlc, the plasma was used for a gastrointestinal hormone panel, and the serum was used to access multiple chemistries. Finally, major organs and tissues were collected (heart, kidney, liver, lung, stomach, duodenum, colon, pancreas, brown adipose, white adipose, carcass) on day 16 and fixed in 10% neutral buffered formalin for macroscopic and microscopic histological examination.

GLP1R [6] = target: T1, GLP1R; assay: melanophore functional bioassay, human GLP1R; format: cell-based; parameters: expressed in transfected cells; host or cells: melanophores; conditions: melanophores transfected with receptor
Description: as §4

[7] = read-out: GLP-1R BA (10 uM albumin) EC50 (pM) n = 2, presence of 10 uM albumin
[8] = read-out: GLP-1R BA EC50 (pM) n = 3, absence of albumin
[9] = ED80 Doses: PYY-Alb 1.0 mg/kg, Exn-Alb 0.1 mg/kg, Combo
[10] = day 16, ED80 doses: Exendin-4-AlbudAb 0.1 mg/kg, Combo ED80
[11] = ED20 doses: PYY-AlbudAb 0.1 mg/kg, Exendin-4-AlbudAb 0.01 mg/kg, Combo ED20

T1 sequence (P43220 24-463): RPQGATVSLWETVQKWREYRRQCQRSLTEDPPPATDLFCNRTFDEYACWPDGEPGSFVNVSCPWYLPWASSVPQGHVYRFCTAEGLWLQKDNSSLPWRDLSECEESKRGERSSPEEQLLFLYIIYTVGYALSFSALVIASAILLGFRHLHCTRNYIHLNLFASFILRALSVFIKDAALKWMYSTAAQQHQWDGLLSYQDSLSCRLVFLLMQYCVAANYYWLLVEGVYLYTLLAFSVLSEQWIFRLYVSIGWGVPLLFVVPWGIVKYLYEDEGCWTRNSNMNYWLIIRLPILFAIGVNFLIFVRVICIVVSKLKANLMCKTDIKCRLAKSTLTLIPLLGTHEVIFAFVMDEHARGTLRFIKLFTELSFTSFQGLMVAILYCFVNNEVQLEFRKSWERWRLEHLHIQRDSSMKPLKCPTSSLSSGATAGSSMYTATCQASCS
Mouse serum albumin (MSA), sequence (P07724 25-608): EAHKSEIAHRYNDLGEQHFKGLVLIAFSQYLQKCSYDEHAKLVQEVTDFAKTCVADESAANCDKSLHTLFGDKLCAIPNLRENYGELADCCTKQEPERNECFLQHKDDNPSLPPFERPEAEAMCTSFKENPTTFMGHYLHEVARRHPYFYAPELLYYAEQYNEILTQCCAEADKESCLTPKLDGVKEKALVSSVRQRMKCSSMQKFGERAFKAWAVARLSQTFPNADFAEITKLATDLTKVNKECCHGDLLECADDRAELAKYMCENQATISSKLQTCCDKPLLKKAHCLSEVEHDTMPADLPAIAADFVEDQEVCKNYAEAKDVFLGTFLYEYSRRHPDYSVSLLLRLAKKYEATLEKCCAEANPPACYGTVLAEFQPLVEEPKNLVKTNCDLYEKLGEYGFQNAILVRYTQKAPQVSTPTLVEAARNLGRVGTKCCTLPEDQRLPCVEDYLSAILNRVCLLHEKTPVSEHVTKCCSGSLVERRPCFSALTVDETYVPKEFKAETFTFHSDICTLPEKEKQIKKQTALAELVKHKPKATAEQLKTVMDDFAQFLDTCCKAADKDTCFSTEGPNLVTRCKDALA
Rat serum albumin (RSA), sequence (P02770 25-608): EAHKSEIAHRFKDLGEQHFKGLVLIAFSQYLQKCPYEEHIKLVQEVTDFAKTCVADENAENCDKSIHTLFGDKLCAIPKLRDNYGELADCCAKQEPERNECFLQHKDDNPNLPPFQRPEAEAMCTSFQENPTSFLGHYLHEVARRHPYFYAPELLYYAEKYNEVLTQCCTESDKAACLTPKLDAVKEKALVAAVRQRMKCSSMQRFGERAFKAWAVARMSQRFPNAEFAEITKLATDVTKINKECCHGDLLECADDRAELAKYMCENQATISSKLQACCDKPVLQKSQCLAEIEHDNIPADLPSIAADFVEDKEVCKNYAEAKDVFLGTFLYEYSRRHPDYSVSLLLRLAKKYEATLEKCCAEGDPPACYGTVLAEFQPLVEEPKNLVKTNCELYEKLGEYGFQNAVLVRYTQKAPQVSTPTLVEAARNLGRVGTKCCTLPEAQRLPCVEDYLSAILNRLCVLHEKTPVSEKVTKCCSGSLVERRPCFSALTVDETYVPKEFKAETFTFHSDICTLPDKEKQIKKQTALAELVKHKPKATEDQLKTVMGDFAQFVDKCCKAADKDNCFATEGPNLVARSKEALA

DAT 0117: Exendin 4, helical linker, DOM7h-14 fusion (Table 3), SEQ ID NO 4; Table 2 calls it 2xGLP-1 (7-37) A8G DOM7h-14 fusion
Kd [1]: 130000 pM | Kd (Rat serum albumin (RSA)): 700000 pM | Kd [2]: 150000 pM | EC50 (GLP1R [3]; [7]): 15 pM | EC50 (GLP1R [3]; [8]): 4 pM

DAT 0116: Exendin 4 DOM7h-14 fusion, SEQ ID NO 3
EC50 (GLP1R [3]; [7]): 72 pM | EC50 (GLP1R [3]; [8]): 12 pM

DAT 0115: genetic fusion: exendin-4, (G4S)3 linker, 7h-14 AlbudAb, SEQ ID NO 2
decrease in percent body fat (normalized to changes in vehicle controls) ([4]; 15 day treatment, ED20 doses: PYY-AlbudAb 0.1 mg/kg, Exendin-4-AlbudAb 0.01 mg/kg, Combo ED20): 0.6% | decrease in percent body fat ([4]; 15 day treatment, ED80 doses: PYY-AlbudAb 1.0 mg/kg, Exendin-4-AlbudAb 0.1 mg/kg, Combo ED80): 6.8% | Insulin % Change from DIO Vehicle ([4]; ED80 Doses: Exn-Alb 0.1 mg/kg, Combo): ↓-56% | ALT % Change from DIO Vehicle [4, 9]: ↓-57%* | AST % Change from DIO Vehicle [4, 9]: ↓-41%* | Creatinine % Change from DIO Vehicle [4, 9]: ↓-17%* | Glucose % Change from DIO Vehicle [4, 9]: ↓-27%* | Total Bilirubin % Change from DIO Vehicle [4, 9]: ↑21%* | Total Cholesterol % Change from DIO Vehicle [4, 9]: ↓-24%* | Ghrelin levels ([4]; Exendin-4-AlbudAb monotherapy groups, level approximately equal to the combination groups): elevated | decrease in body weight relative to vehicle ([4]; day 7, ED80 doses: PYY-AlbudAb 1.0 mg/kg, Exendin-4-AlbudAb 0.1 mg/kg, Combo ED80 = both mixed): 13.0% | inhibition of feeding / food intake ([4]; day 14, ED80 doses: PYY-AlbudAb 1.0 mg/kg, Exendin-4-AlbudAb 0.1 mg/kg, Combo ED80): 0.8% | decrease in body weight vs. vehicle ([4]; day 15, ED20 doses: PYY-AlbudAb 0.1 mg/kg, Exendin-4-AlbudAb 0.01 mg/kg, Combo ED20 = both mixed, s.c. every two days): 4.5% | decrease in body weight from vehicle ([4]; day 15, ED80 doses: PYY-AlbudAb 1.0 mg/kg, Exendin-4-AlbudAb 0.1 mg/kg, Combo ED80 = both mixed): 16.8% | microscopic change in brown adipose tissue (histopathology) ([4]; day 16, Combo ED20, Exendin-4-AlbudAb 0.01 mg/kg): decreased cytoplasmic lipid droplets | microscopic change in brown adipose tissue (histopathology) ([4]; day 16, Combo ED80, PYY-AlbudAb 1.0 mg/kg, Exendin-4-AlbudAb 0.1 mg/kg, Exendin-4 0.1 mg/kg): decreased cytoplasmic lipid droplets | Amylin levels in plasma [4, 10]: 163 pg/mL | Leptin levels in plasma [4, 10]: 31.4 ng/mL | fat mass lost ([4]; treatment period, ED20 doses: PYY-AlbudAb 0.1 mg/kg, Exendin-4-AlbudAb (dose not given), Combo ED20): 1.4 grams | body fat lost ([4]; treatment period, ED80 doses: PYY-AlbudAb 1.0 mg/kg, Exendin-4-AlbudAb (dose not given), Combo ED80): 5.7 grams | pEC50 Mouse GLP1R (GLP1R [5]): 11.06 | inhibition of weight gain (in words) (db/db C57BL/6J mice; PYY-AlbudAb 1.0 mg/kg, Exendin-4-AlbudAb 0.1 mg/kg, Combo ED80): effective at inhibiting weight gain | decrease in glycosylated HbAlc (db/db C57BL/6J mice; [11]): no significant changes | decrease in glycosylated HbAlc (db/db C57BL/6J mice; ED80 doses: PYY-AlbudAb 1.0 mg/kg, Exendin-4-AlbudAb 0.1 mg/kg, Combo ED80): 0.80% | decrease in body weight from vehicle (db/db C57BL/6J mice; day 15, ED80 doses: PYY-AlbudAb 1.0 mg/kg, Exendin-4-AlbudAb 0.1 mg/kg, Combo ED80): 9.2% | decrease in body weight relative to vehicle control (db/db C57BL/6J mice; day 15, PYY-AlbudAb 0.1 mg/kg, Exendin-4-AlbudAb 0.01 mg/kg): no significant effect | plasma insulin levels (db/db C57BL/6J mice; [11]): trends towards increases | plasma insulin levels (db/db C57BL/6J mice; ED80 doses: PYY-AlbudAb 1.0 mg/kg, Exendin-4-AlbudAb (dose not given), Combo ED80): 32036 pg/mL | EC50 (GLP1R [3]; [7]): 38 pM | EC50 (GLP1R [3]; [8]): 8 pM | pEC50 Human GLP1R (GLP1R [6]): 11.36
